Tests used:
[1] = UV-VIS measurement of 5-ALA solution after dilution with water; type: physicochemical; settings: 10% water-free solution, water added 1:1, subsequently diluted 1:100 with water
Description: This was detected by measuring the decrease of absorbance at 447 nm (FIG. 2).

[2] = Decomposition check of non-aqueous 5-ALA solutions by capillary electrophoresis; type: physicochemical; settings: 10% solutions (weight/vol) in 1,2-propylene glycol and glycerol, after complete dissolution
Description: 10% solutions (weight/vol) of […] in 1,2-propylene glycol and glycerol were prepared.

by-products in UV spectrum [1]: without the presence of by-products
Compound: NCC(=O)CCC(=O)O [5-ALA, 5-aminolevulinic acid]
degradation products (DHPY, PY, porphobilinogen) in capillary electrophoresis [2]: neither DHPY, PY nor porphobilinogen were detected
